Here are results for four compounds from publication PMC11054433, “Nature-Inspired 1-Phenylpyrrolo[2,1-a]isoquinoline Scaffold for Novel Antiproliferative Agents Circumventing P-Glycoprotein-Dependent Multidrug Resistance” (Pharmaceuticals, 2024).

The target in data set [1] is multidrug-resistance-associated protein-1 (MRP1) (Homo sapiens, UniProt P33527). Briefly: Calcein-AM transport inhibition in MDCK-MRP1 cells overexpressing MRP1.
Protocol: (§3) The P-gp inhibitory potency of eight DHPIQs was evaluated by measuring the transport inhibition of calcein-AM, a profluorescent P-gp substrate, in the MDCK-MDR1 cell line overexpressing P-gp. Moreover, to evaluate the MRP1 inhibitor activity, the same compounds were screened in MDCK-MRP1 cells overexpressing MRP1.
(§4) According to previously described assays [9], MDCK-MDR1 and MDCK-MRP1 cell lines (50,000 cells per well) were seeded into a black CulturePlate 96-well plate with 100 μL medium and allowed to become confluent overnight. […] Saline buffer (100 μL) was added to each well, and the plate was read by a PerkinElmer Victor3 spectrofluorimeter at excitation and emission wavelengths of 485 nm and 535 nm, respectively. In these experimental conditions, calcein cell accumulation in the absence and in the presence of the test compound was evaluated, and the fluorescence basal level was estimated by untreated cells. In the treated wells, the increase of fluorescence with respect to basal level was measured. IC50 values were determined by interpolating the curve of fluorescence increase percentage versus log [conc.].
Data set [2] is described as follows: Kinetic solubility in PBS by RP-HPLC. The conditions noted are these: phosphate buffered saline, 25 °C, kinetic from dmso stock. The data set is classed as physicochemical. The method, then:
Sample solution at 200 μM in PBS (50 mM, pH 7.4, KCl 0.15 M) from a 10 mM stock solution in DMSO was incubated at room temperature (25 ± 1 °C) for 2 h, following shaking of the suspension on an orbital shaker at 250 rpm, and then separated by […]. Immediately after the filtration step, 100 µL of filtrate was transferred into 100 µL of 1:1 (v/v) mixture of DMSO and PBS (50 mM, pH 7.4, KCl 0.15 M), to avoid precipitation from the saturated solution and analyzed by HPLC. The peak area was plotted against a calibration curve of the tested compound in MeOH [21]. Analytical conditions were as follows. Mobile Phase: MeOH/ammonium formate 20 mM pH 4.7 (70:30, 75:25); MeOH 0.1% TFA/H2O 0.1% TFA (70:30, 60:40); stationary phase: Phenomenex, Kinetex 5 μ, C18, 100 Å (150 × 4.6 mm); flux: 1 mL/min; injection: 10 μL, 265, 290, 320 nm wavelength. HPLC analyses were performed on an Agilent HPLC 1260 Infinity Series Integrated System (Agilent Technologies, Milan, Italy).

Data set [3] concerns RD (rhabdomyosarcoma) cells. The note with it: mean (SD), cited from earlier work.
The target in data set [4] is T1, human serum albumin (HSA) (Homo sapiens, UniProt P02768). Briefly: Binding affinity to immobilized HSA by surface plasmon resonance (SPR). Background: Surface plasmon resonance follows binding to a sensor surface in real time, without labels.
Protocol: (§5) By plotting the response at equilibrium, the dissociation constant (KD) value was determined for each test compound.
(§6) Fatty acid-free HSA (A3782 from Merck, KGaA Sigma-Aldrich, Darmstadt, Germany) was applied to functionalize the surface of a COOH V sensor chip (Pall FortèBio, Fremont Boulevard, CA, USA), by using amine coupling (EDC/NHS). HSA aqueous stock solution was diluted at the final concentration of 50 μg·mL^−1 in 10 mM sodium acetate buffer (pH 5.0), and immobilization in peripheral flow cells 1 and 3 (unmodified dextran surface in middle flow cell 2 used as a reference) at a final apparent level of about 5000 RU was achieved by applying the following protocol: injection of EDC/NHS (freshly mixed 0.4 M EDC and 0.1 M NHS) 1:1 v/v at a flow of 25 μL·min^−1 for 4 min; injection of HSA solution at a flow of 25 μL·min^−1 for 8 min; capping on unreacted activated carboxyl groups by injection of 1 M ethanolamine solution (pH 9) at a flow of 25 μL·min^−1 for 8 min. The functionalized surface was then treated with repeated injection of 4 M NaCl, as a regenerating reagent, and conditioned overnight prior to use with pH 7.4 PBS (10 mM NaH2PO4 and 150 mM NaCl) as a running buffer. Each cycle (without the need of regeneration) for binding assay to HSA was carried out in PBS/4% v/v DMSO and consisted of a run buffer injection (60 s), injection of analyte single concentration for 120 s (ranging from 1 to 200 μM) at a flow 20 μL·min^−1, and a dissociation phase for 150 s (flow 20 μL·min^−1). Each measurement was performed at least in triplicate and analyzed by using QDAT software, vers 2.2.0.7 (non-linear regression analysis of 1:1 stoichiometric reversible binding model), and double referencing.
The test system of data set [5] is HCT116 (colon cancer) cells. The conditions noted are these: mean (SD), cited from earlier work.
Data set [6] is described as follows: Lipophilicity by RP-HPLC (polycratic capacity factor). The format is physicochemical. The note with it: capacity factor extrapolated to 100% aqueous mobile phase, aqueous component pH 4.7. As for the experimental part: To quantitate the effect of hydrophobicity on the biological activity of the examined compounds, a relative lipophilicity scale was determined by RP-HPLC [20]. The polycratic capacity factor (log k′w) for each compound in Table 2 was experimentally determined (details in the experimental section) and compared with 1-octanol–water partition coefficient calculated (Clog P) with ACDLabs software (release 10.0; Advanced Chemistry Development, Inc., Toronto, ON, Canada). Log k′w values are quite well correlated with Clog Ps for the whole series (r^2 = 0.791). However, omitting from the regression the two Mannich bases 8b and 8c, which, due to their basicity (pKas about 6.9, estimated by ACDLabs software), should be predominantly in the protonated forms at pH 4.7 (i.e., the pH of the aqueous component of the mobile phase in RP-HPLC), the correlation slightly improves (r^2 = 0.859), providing a linear equation with a slope equal to +0.8 and an intercept of about −0.1.
The lipophilicity parameters were determined by an RP-HPLC technique. Methanol solution of DHPIQ derivatives (1 mg/mL) were analyzed by an Agilent 1260 infinite HPLC system (Agilent Technologies, Milan, Italy) equipped with a diode array detector (DAD), and a Phenomenex, Kinetex 5 μ, C18, 100 Å (150 × 4.6 mm), and eluted with different percentage of mobile phase composition (0.05 increments of MeOH volume fractions in 20 mM ammonium formate buffer at pH 4.7 or water 0.1% v/v TFA, with φ ranging between 0.85 and 0.30). The chromatographic measurements were carried out at 25 ± 1 °C at a flow rate of 1 mL·min^−1 and at 265, 290, 320 nm wavelengths. The log of capacity factors (log k′ = log (tR − t0)/t0) of each compound at different mobile phase compositions was calculated; tR represents the retention time of the solute and t0 is the column dead time, measured as the elution time of a KNO3 solution in MeOH. For each compound, the log k′ values increased linearly with decreasing MeOH volume fraction. The logarithms of the capacity factor extrapolated to 100% aqueous mobile phase (log k′w) were calculated from the linear regressions on at least five data points (r^2 > 0.9984).

In data set [7] the target is T2, P-glycoprotein (P-gp) (Homo sapiens, UniProt P08183). Briefly: Calcein-AM transport inhibition in MDCK-MDR1 cells overexpressing P-gp. The conditions noted are these: for IC50: P-gp, IC50, MDCK-MDR1 cells, calcein-AM, mean (SD), at least two independent experiments in triplicate.
Protocol: as §3, §4
For data set [8], the system named is HeLa (adenocarcinoma of the cervix uterus) cells. The conditions noted are these: mean (SD), cited from earlier work.
Data set [9] has as its system A549 (lung adenocarcinoma) cells. The conditions noted are these: mean (SD), cited from earlier work.
The test system of data set [10] is RD (rhabdomyosarcoma) cells. Briefly: MTT antiproliferative (cytotoxicity) assay, RD cells. The note with it: 72 h, mean (SD), triplicate, n.a. = not active at 100 μM, >100 = less than 60% inhibition at 100 μM. The data set is classed as cell-based, Human. The method, then:
(§1) The newly synthesized 1-Ph-DHPIQs, along with the previously reported derivatives 4a, 4c, 6a and 6c, with camptothecin and doxorubicin as positive controls, were tested at the maximum concentration of 100 μM for their antiproliferative activity, using an MTT assay on RD, HCT116, HeLa and A549 cancer cell lines. Compounds showing more than 50% inhibition were tested at lower scalar concentrations, and IC50 values were calculated by interpolation of the dose-response curves (Table 1). […]
(§2) The antiproliferative activity of the newly synthesized compounds, along with some previously reported analogs, and camptothecin and doxorubicin as positive controls was determined by the MTT (3-(4,5-dimethylthiazol-2-yl)-2,5-diphenyltetrazolium bromide) assay. The cells were seeded at a concentration of 1 × 10 ^4 cells/200 μL in a 96-well plate and cultured at 37 °C in a humidified atmosphere with 5% CO2. After 24 h of incubation, scalar concentrations of each test compound (100 to 1.56 μmol·L^−1) were added to the cancer cell culture and the cells were then cultured under the same conditions for 72 hr. Each concentration of the test compound was assayed in triplicate. […] Wells with the 0.1% v/v DMSO were used as controls. After incubation, 20 μL of MTT (5 mg·mL^−1) was added to each well and the plates were incubated for a further 2 h. Next, media were removed from the plates, and 100 μL of DMSO was added to each well to dissolve the formed formazan crystals. Using a flatbed analyzer (Victor^3, PerkinElmer, Waltham, MA, USA), the optical density was determined at 530 nm, minus the measured background absorbance at 620 nm. The concentration value, which causes 50% inhibition of cell population growth (IC50), was determined from the dose-dependent curves using the OriginPro 9.0 software.

In data set [11] the test system is A549 (lung adenocarcinoma) cells. Briefly: MTT antiproliferative (cytotoxicity) assay, A549 cells. The data set is classed as cell-based, Human. The note with it: mean (SD), triplicate, n.a. = not active at 100 μM, >100 = less than 60% inhibition at 100 μM.
Protocol: The antiproliferative activity of the newly synthesized compounds, along with some previously reported analogs, and camptothecin and doxorubicin as positive controls was determined by the MTT (3-(4,5-dimethylthiazol-2-yl)-2,5-diphenyltetrazolium bromide) assay. […] Each concentration of the test compound was assayed in triplicate. […] Wells with the 0.1% v/v DMSO were used as controls. After incubation, 20 μL of MTT (5 mg·mL^−1) was added to each well and the plates were incubated for a further 2 h. Next, media were removed from the plates, and 100 μL of DMSO was added to each well to dissolve the formed formazan crystals. Using a flatbed analyzer (Victor^3, PerkinElmer, Waltham, MA, USA), the optical density was determined at 530 nm, minus the measured background absorbance at 620 nm.
In data set [12] the test system is HCT116 (colon cancer) cells. Briefly: MTT antiproliferative (cytotoxicity) assay, HCT116 cells. The note with it: mean (SD), triplicate, n.a. = not active at 100 μM, >100 = less than 60% inhibition at 100 μM. The format is cell-based, Human. The method, then:
as §1, §2

The target of data set [13] is T1, human serum albumin (HSA). The note with it: 10 μM, pH 7.4.
Protocol: as §5, §6
Data set [14] has as its system HeLa (adenocarcinoma of the cervix uterus) cells. Briefly: MTT antiproliferative (cytotoxicity) assay, HeLa cells. The data set is classed as cell-based, Human. The conditions noted are these: 72 h, mean (SD), triplicate, n.a. = not active at 100 μM, >100 = less than 60% inhibition at 100 μM. The method, then:
as §1, §2

Data set [15] can be described thus: Hydrolytic stability monitored by RP-HPLC. The data set is classed as physicochemical. The conditions noted are these: 0.15 M KCl; for Hydrolytic stability at pH 2: 0.01 M HClaq, pH 2, 25 °C; for Hydrolytic stability at pH 7.4: 50 mM PBS, pH 7.4, 25 °C. From the text:
In particular, the transformation of the DHPIQ-2-aldehyde via Mannich reaction (8b,c) opens the road to future developments of new water-soluble antiproliferative DHPIQ derivatives endowed with the ability to inhibit P-gp and reverse MDR.

Another data set concerns the target P-gp versus MRP1 (Homo sapiens, UniProt P08183). Briefly: Calcein-AM transport inhibition in MDCK-MDR1 cells overexpressing P-gp. The conditions noted are these: human, MDCK-MDR1 cells and MDCK-MRP1 cells, probe calcein-AM.
In data set [16] the target is T2, P-glycoprotein (P-gp). Set-up: expressed in transfected cells; host or cells: MDCK-MDR1 (gift from Prof. P. Borst, NKI-AVL); method as in PMID 29802687. The conditions noted are these: MDCK-MDR1 cells; ref [9]; cited from earlier work.
Where [17] appears, read: aqueous buffer, PBS (50 mM, pH 7.4, 0.15 M KCl) at 25 ± 1 °C, read-out: S (solubility).
The mark [18] stands for this setting: Homo sapiens, Rhabdomyosarcoma cell.
Setting [19] is: pH 7.4, aqueous buffer, ‘practically insoluble’ threshold of US and European Pharmacopoeia, read-out: Solubility category in buffered water solution at neutral pH.

Where “and” joins values, the source holds several entries; their conditions need not be identical. Identical values can stand only once. Like-named read-outs stand apart in the source and are kept apart here.

T1 sequence (P02768 25-609): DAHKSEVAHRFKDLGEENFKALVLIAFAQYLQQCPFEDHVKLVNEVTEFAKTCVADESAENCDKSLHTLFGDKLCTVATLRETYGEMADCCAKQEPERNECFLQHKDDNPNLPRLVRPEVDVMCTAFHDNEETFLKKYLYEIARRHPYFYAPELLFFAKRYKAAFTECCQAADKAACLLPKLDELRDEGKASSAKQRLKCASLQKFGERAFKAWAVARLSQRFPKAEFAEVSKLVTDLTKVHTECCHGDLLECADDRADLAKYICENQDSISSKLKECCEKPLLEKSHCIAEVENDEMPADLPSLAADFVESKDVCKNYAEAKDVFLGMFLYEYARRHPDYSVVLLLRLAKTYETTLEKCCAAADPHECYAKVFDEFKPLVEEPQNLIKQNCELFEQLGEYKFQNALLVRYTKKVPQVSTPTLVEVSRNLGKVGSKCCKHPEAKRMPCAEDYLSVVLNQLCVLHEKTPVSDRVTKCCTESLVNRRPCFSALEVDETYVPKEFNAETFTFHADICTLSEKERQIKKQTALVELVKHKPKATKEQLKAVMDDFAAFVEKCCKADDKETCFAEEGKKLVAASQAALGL
T2 sequence (P08183 whole entry): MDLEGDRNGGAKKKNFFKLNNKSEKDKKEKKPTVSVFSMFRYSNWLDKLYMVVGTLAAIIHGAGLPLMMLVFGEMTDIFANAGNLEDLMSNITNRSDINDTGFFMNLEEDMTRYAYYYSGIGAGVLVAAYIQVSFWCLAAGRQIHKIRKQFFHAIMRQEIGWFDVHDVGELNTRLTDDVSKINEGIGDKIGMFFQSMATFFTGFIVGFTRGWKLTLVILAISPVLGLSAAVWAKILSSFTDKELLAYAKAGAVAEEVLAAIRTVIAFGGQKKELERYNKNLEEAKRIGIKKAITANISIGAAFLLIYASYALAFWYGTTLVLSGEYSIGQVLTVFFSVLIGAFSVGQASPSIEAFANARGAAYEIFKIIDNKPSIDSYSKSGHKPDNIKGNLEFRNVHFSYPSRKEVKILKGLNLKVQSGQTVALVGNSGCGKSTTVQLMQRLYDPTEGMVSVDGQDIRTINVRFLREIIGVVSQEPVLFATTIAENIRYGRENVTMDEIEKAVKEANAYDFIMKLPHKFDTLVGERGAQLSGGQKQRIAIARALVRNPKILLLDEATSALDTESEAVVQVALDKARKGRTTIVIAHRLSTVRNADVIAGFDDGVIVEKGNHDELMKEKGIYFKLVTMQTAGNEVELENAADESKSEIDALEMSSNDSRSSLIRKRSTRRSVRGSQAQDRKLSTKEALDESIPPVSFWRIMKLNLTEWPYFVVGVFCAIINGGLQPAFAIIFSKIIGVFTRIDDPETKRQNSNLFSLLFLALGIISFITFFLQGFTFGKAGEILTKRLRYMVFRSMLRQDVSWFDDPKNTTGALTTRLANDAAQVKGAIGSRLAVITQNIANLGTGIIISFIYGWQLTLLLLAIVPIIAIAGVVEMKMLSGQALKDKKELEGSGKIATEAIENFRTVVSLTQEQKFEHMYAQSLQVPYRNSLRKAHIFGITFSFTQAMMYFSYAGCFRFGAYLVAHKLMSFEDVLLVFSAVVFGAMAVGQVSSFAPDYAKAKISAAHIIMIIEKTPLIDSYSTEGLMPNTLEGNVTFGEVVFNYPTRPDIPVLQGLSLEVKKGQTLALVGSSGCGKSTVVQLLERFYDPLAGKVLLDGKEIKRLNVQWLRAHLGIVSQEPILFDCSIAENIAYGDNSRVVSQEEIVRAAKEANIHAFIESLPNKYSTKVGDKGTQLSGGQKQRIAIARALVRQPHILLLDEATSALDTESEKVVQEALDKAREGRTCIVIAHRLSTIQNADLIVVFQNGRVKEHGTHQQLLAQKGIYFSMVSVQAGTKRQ
multidrug-resistance-associated protein-1 (MRP1), sequence (P33527 whole entry): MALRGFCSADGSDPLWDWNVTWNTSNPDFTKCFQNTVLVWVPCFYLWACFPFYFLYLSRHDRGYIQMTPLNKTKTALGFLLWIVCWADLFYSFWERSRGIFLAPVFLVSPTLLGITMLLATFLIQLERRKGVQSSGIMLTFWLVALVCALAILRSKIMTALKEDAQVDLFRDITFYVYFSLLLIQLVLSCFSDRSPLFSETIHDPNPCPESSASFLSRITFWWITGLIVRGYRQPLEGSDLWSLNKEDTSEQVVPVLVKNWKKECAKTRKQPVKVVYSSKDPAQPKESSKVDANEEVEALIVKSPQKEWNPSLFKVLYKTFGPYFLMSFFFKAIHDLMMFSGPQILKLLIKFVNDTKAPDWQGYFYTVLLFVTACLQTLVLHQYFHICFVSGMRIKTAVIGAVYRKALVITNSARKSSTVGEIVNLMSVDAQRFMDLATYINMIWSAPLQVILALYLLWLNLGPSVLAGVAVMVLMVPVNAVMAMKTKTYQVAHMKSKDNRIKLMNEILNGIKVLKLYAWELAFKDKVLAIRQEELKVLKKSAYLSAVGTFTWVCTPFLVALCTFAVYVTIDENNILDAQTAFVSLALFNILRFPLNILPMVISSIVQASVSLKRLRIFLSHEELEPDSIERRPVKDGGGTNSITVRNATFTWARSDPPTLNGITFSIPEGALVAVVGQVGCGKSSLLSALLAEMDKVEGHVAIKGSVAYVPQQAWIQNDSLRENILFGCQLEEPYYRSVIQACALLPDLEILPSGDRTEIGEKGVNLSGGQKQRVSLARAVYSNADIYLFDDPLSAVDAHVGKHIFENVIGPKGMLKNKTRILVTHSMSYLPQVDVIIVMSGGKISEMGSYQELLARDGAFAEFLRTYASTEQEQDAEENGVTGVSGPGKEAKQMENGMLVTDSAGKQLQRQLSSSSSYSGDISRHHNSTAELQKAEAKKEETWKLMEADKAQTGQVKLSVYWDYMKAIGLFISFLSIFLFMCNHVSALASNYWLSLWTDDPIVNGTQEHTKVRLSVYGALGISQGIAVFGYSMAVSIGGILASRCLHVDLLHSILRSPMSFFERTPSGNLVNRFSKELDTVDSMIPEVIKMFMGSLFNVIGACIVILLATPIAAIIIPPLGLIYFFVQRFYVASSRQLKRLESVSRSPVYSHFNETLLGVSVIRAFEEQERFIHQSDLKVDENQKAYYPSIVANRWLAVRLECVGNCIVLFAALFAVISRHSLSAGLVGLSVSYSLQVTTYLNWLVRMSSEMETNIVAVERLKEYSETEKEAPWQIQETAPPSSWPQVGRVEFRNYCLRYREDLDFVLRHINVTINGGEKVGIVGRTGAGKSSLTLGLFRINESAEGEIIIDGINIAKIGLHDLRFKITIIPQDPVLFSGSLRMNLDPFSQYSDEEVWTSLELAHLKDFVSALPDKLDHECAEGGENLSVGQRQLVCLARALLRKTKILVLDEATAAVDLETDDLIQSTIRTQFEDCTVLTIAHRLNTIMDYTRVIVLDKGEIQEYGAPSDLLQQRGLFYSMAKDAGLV
P-gp versus MRP1, sequence (P08183 whole entry): as the sequence (P08183 whole entry) above
Protocol for P-gp versus MRP1: as §3, §4

Turning to `COc1cc2c(cc1OC)-c1c(-c3ccc(Cl)cc3)c(C=O)cn1CC2` [Compound 4a], the half-inhibitory concentration (IC50) – broadly, the midpoint of a concentration-inhibition curve – in data set [1] is 21.9 µM; in [3] (ref [5]), 17.6 µM; in [5] (ref [5]) it was 22 µM; at P-glycoprotein (P-gp) [7], 25.3 µM; in [8] (ref [5]), 33 µM; in data set [9] (ref [5]), 38.6 µM. The solubility (commonly the concentration that dissolves in the medium under given conditions) at 2 h in data set [2] (setting [17]) was 6.66 µM. Moreover, in data set [4], the affinity, expressed as Kd, was 1.6 µM. Moreover, the “Log k′w” value in data set [6] is reported as 4.32. The “P-gp/MRP1 selectivity (toward P-gp)” value on P-glycoprotein (P-gp) [7] (ratio of MRP1 and P-gp inhibition potency) is reported as “unselective”.

As to `COc1ccc(-c2c(CN3CCOCC3)cn3c2-c2cc(OC)c(OC)cc2CC3)cc1` [Compound 8b, 8,9-Dimethoxy-1-(4-methoxyphenyl)-2-(morpholin-4-ylmethyl)-5,6-dihydropyrrolo[2,1-a]isoquinoline], the IC50 is 37.7 µM in data set [10] (setting [18]); 1.8 µM in data set [1]; 66 µM in [11] (Homo sapiens, A549, 72 h); 56.4 µM in data set [12] (Homo sapiens, HCT-116, 72 h); < 0.5 µM and 0.36 µM on P-glycoprotein (P-gp) [7]; 65.4 µM in [14] (Homo sapiens, HeLa). Also, the values for the solubility at 2 h in data set [2] (setting [17]) and in data set [2] (setting [19]) were 112 µM and below 100 µg/mL, respectively. Further, in [4], the Kd (usually the constant that tells how readily two partners part at equilibrium) came out at 19.3 µM. In [13], the “Predicted fraction bound to HSA” value was “less than 40%”. The “Log k′w” value in data set [6] was 3.86. Besides, in data set [15], the “Hydrolytic stability at pH 2” value was “stable over 4 h”. For the same compound, the “Hydrolytic stability at pH 7.4” value in data set [15] is on record as “stable over 4 h”.

As to `CCOc1ccc(-c2c(CN3CCOCC3)cn3c2-c2cc(OCC)c(OCC)cc2CC3)cc1OCC` [Compound 8c, 1-(3,4-Diethoxyphenyl)-8,9-diethoxy-2-(morpholin-4-ylmethyl)-5,6-dihydropyrrolo[2,1-a]isoquinoline], the IC50 in data set [10] is < 20 µM and 18.6 µM; in [10] (setting [18]), below 21 µM; in [1], 12.1 µM; in data set [11] (72 h), 20.8 µM; in [11] (Homo sapiens, A549, 72 h), below 21 µM; in [12] (72 h), 15.7 µM. Moreover, the IC50 in [12] (Homo sapiens, HCT-116, 72 h) is below 21 µM; on P-glycoprotein (P-gp) [7], < 0.5 µM and 0.45 µM; in data set [14], 17.5 µM; in data set [14] (Homo sapiens, HeLa), below 21 µM. Further, the solubility at 2 h is 41.7 µM in [2] (setting [17]) and below 100 µg/mL in data set [2] (setting [19]). Also, the Kd in data set [4] turned out to be 26.9 µM. For the same compound, the “Predicted fraction bound to HSA” value in data set [13] is “less than 40%”. Besides, the “Log k′w” value in [6] is listed as 4.31. Besides, at P-gp versus MRP1, the selectivity ratio was around 30. Further, in data set [15], the “Hydrolytic stability at pH 2” value was “stable”. The “Hydrolytic stability at pH 7.4” value in data set [15] is “stable”.

`CCOc1ccc(-c2c(C=O)cn3c2-c2cc(OCC)c(OCC)cc2CC3)cc1OCC` [Compound 4c]: the IC50 in [3] (ref [8]) is 21.3 µM; at P-glycoprotein (P-gp) [16] it was below 0.5 µM; in data set [5] (ref [8]), 11.8 µM; in data set [8] (ref [8]) it was 44.5 µM; in data set [9] (ref [8]), 19.7 µM.
